Experimental data from BigSolDB 2.1.

O=C1CCCCCCCCCCC1
solubility (mole fraction)
Settings	278.15 K	283.15 K	288.15 K	293.15 K	298.15 K	303.15 K	308.15 K	313.15 K
in 1,2-dichloroethane	0.366	0.394	0.441	0.459	0.511	0.549	0.604	0.657
in acetone	0.142	0.184	0.229	0.285	0.362	0.432	0.517	0.618
in acetonitrile	0.0485	0.0711	0.104	0.16	0.225	0.322	0.466	0.637
in cyclohexane	–	0.21	0.263	0.308	0.366	0.441	0.515	0.598
in ethanol	0.0472	0.0701	0.0949	0.127	0.183	0.243	0.348	0.461
in ethyl acetate	0.195	0.235	0.286	0.345	0.407	0.477	0.553	0.615
in isobutanol	0.0949	0.121	0.158	0.202	0.261	0.331	0.424	0.54
in isopropanol	0.0967	0.122	0.155	0.2	0.262	0.341	0.445	0.55
in methanol	0.0155	0.0267	0.04	0.0679	0.108	0.166	0.272	0.399
in n-butanol	0.0988	0.125	0.164	0.204	0.258	0.327	0.415	0.527
in n-propanol	0.118	0.144	0.182	0.228	0.293	0.37	0.467	0.567
in toluene	0.33	0.378	0.41	0.454	0.501	0.553	0.607	0.675
